Assay results taken from patent US7241579B2, “Method of screening for GPR40 ligands” (SmithKline Beecham Corporation, priority 2000, dated 2007).
pEC50: −log10 of the molar value. Like-named read-outs stand apart in the source and are kept apart here.

Legend:
Format in all cases: cell-based
[1] = system: CHO cells expressing CRE-luciferase with no receptor; experiment: CRE-luciferase reporter in CHO cells containing reporter only (no receptor); settings: 4 hours of treatment
Protocol: (§1) Specific coupling was determined in mammalian cells using transient expression of a CRE-luciferase reporter for Gαs and stable cell-lines containing Gal4/ELK-1-luciferase reporter for Gαq/Gαi. Wild-type CHO cells were co-transfected with 3×-CRE-luciferase reporter vector and various amounts of an expression vector for GPR40. The control cells were transfected with reporter vector only. The reporter gene plasmids were produced in house but similar vectors can be purchased from Stratagene ([…]®). Cells were plated in a 24 well tissue culture plate at 1×10^4 cells/well in DMEM/F12 supplemented with 5% FBS. After 72 hours at 37° C., 5% CO2, the cells were transfected using the liposomal transfection reagent sold under the trademark LIPOFECTAME® and with the following combinations of plasmids: • A-3×-CRE-Luc • B-3×-CRE-Luc+CMV-GPR40 • C-3×-CRE-Luc+CMV-Gs coupled receptor The concentration of reporter plasmid for all wells was 0.15 μg/well. Concentrations of receptor plasmids were 0.5, 1.0, 5.0, 10.0 ng/well. After 24 hrs Cells containing 1 ng/well of receptor plasmid or no DNA control and CRE-Luc reporter were treated with fatty acid or the calcitonin which is known to act through a Gs-coupled receptor (Chakraborty, Science 251: 1078 (1991)) at concentrations indicated. […]

[2] = system: CHO cells containing GAL4/Elk1-luciferase reporter constructs; experiment: GAL4/Elk-1-luciferase reporter in host CHO cells (reporter only), with and without pertussis toxin; settings: for agonist-stimulated reporter activity after pertussis toxin treatment: 1 ug/ml pertussis toxin 16 hours
Source text: (§2) To further test the coupling of GPR40 to Gαi/Gαq a Gal4/Elk-1 reporter was used. A stable, clonal reporter line was created by transfecting CHO cells with a plasmid that contains an expression construct for GAL4/Elk-1 and a GAL4-luciferase reporter construct. A similar reporter system can now be purchased from Stratagene (under the trademark […]®). An expression construct for human GPR40 which contains a G418 resistance construct was transfected into the host CHO GAL4/Elk-1 reporter cell line (10 ug plasmid DNA pCR3-GPR40) via electroporation. The cell lines were selected for with 500 ug/mL G418 until all cells in the control were dead and clones were then picked. The Gal4/Elk-1 reporter can be activated through Gq or Gi. To confirm coupling via Gi, cells were treated with pertussis toxin treatment which ADP-ribosylates Gαi preventing its interaction with receptors (Bokoch et al., J. Biol. Chem 258:2072 (1983)). Pertussis toxin has no known effect on Gαq.
(§3) Host cells and those transfected with the GPR40 construct were plated in a 96-well tissue culture plate at 2000 cells/well in DMEM/F12 supplemented with 5% FBS. After 48 hours at 37° C. at 5% CO2, the cells were placed in serum-free DMEM/F12 in the presence or absence of 1 ug/ml pertussis toxin. After 16 hours at 37° C., 5% CO2 the host cells were treated with: lysophosphatidic acid (oleoyl) (LPA) which couples through GαI to activate MAP kinase (Hordijk et al., J. Biol. Chem. 269: 645 (1994)); thrombin which couples through Gαi and Gαq (Hung et al., J. Biol. Chem. 267:20831 (1992)); or 5,8,11-Eicosatriynoic acid (a GPR40 ligand), at the concentrations indicated. The host cells containing the GPR40 construct were stimulated with or 5,8,11-Eicosatriynoic acid at the concentrations indicated. Controls for lysophosphatidic acid contained 0.5% DMSO; controls for […] contained 0.05% ethanol. Luciferase activity was assayed 4 hours after treatment using a luciferase reporter gene assay kit available under the trademark LUCLITE®, as per manufacturers instructions (Packard Bioscience).

human GPR40 [3] = target: T1, human GPR40 (Homo sapiens, UniProt O14842); experiment: CRE-luciferase reporter in CHO cells co-transfected with GPR40 expression vector; design: expressed in transfected cells; settings: CHO cells containing GPR40 and CRE-Luc reporter, 4 hours of treatment
Protocol: as §1

human GPR40 [4] = target: T1, human GPR40; experiment: GAL4/Elk-1-luciferase reporter in CHO clones transfected with human GPR40, with and without pertussis toxin; design: expressed in transfected cells
Source text: as §2, §3

human GPR40 [5] = target: T1, human GPR40; experiment: FLIPR intracellular calcium response in HEK-293 cells transiently expressing GPR40; design: expressed in transfected cells; host or cells: HEK-293 (transient); settings: GPR40 stimulation
Source text: The Fluorometric Imaging Plate Reader (FLIPR™, Molecular Devices, UK) measures intracellular fluorescense in multi-well microplates. Where a GPCR couples to a calcium signalling pathway, the FLIPR system can be used with cells expressing the G-protein coupled receptor and containing calcium-sensitive fluorescent dyes, to monitor the intracellular calcium flux that occurs after activation of the G-coupled receptor. See, e.g., Kirk et al., J. Biomolecular Screening, 1:75 (1996).
(§4) The assays utilized a G-protein cocktail (+GPC) that contained chimeric and promiscuous G-proteins, as is known in the art of screening orphan G-protein coupled receptors.

PGRW = experiment: FLIPR calcium response in HEK-293 cells transiently expressing the 7TM receptor PGRW (GPRW); settings: HEK-293 cells transiently expressing PGRW, + G-protein cocktail
Source text: as §4

HLTEX11 = experiment: FLIPR calcium response in HEK-293 cells transiently expressing the 7TM receptor HLTEX11; settings: HEK-293 cells transiently expressing HLTEX11, + G-protein cocktail
Source text: as §4

[6] = FLIPR, Additional Fatty Acid Compounds, read-out: EC50 uM
[7] = FLIPR, Additional Fatty Acid Compounds, read-out: EC50
[8] = FLIPR, first of up to 3 experiments, read-out: Mean pEC50 (converted)
[9] = FLIPR, second of up to 3 experiments, read-out: Mean pEC50 (converted)
[10] = FLIPR, third experiment, read-out: Mean pEC50 (converted)
[11] = Mean pEC50 of 3 expts, FLIPR, overall mean (n = 1 or 2 where stated)
[12] = Mean pEC50, FLIPR, first of up to 3 experiments
[13] = Mean pEC50, FLIPR, second of up to 3 experiments
[14] = EC50 uM, FLIPR, Additional Fatty Acid Compounds
[15] = EC50 (M), FLIPR, Additional Fatty Acid Compounds

T1 sequence (O14842 whole entry): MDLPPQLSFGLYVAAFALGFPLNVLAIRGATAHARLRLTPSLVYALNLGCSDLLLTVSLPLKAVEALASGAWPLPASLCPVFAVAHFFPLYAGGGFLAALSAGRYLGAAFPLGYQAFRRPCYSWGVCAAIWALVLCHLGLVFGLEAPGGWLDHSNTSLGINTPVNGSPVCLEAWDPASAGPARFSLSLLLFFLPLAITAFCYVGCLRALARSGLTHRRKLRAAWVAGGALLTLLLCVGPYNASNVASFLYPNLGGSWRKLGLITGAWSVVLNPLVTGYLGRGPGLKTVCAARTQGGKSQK

| Molecule | EC50 (human GPR40 [5]; [6]) [µM] | pEC50 (human GPR40 [5]; [7]) | EC50 (human GPR40 [5]; [8]) [µM] | EC50 (human GPR40 [5]; [9]) [µM] | EC50 (human GPR40 [5]; [10]) [µM] | pEC50 (human GPR40 [5]; [11]) | further results |
| --- | --- | --- | --- | --- | --- | --- | --- |
| CCCCCCCCC#CCC#CCC#CCCCC(=O)O [5,8,11-Eicosatriynoic acid] | 1.7 | 5.77 | – | – | – | – | luciferase production (CRE-luciferase) [1]: no effect; luciferase production (GAL4/Elk-1 reporter) ([2]; 4 hours after treatment): no effect; luciferase production (CRE-luciferase) (human GPR40 [3]): no effect; agonist-stimulated luciferase activity after pertussis toxin treatment (human GPR40 [4]; cells containing GPR40, 1 ug/ml pertussis toxin 16 hours): not inhibited; luciferase activity compared to basal (GAL4/Elk-1 reporter) (human GPR40 [4]; cells containing GPR40, 4 hours after treatment): increased luciferase activity |
| C#CCCCCCCCCCCCCCCCC(=O)O [17-Octadecynoic acid] | 7.6 | 5.12 | – | – | – | – | – |
| CCCCC/C=C\C/C=C\C/C=C\C/C=C\CCCC(=O)O [Arachidonic acid] | 9.1 | 5.04 | 18.2 | 12.9 | 7.24 | 4.92 | – |
| CCCCCCCCCCCCCCCCCCCCCC(=O)O [Behenic acid] | – | – | – | 49 | – | 4.30 | pEC50 (human GPR40 [5]; [12]): 4.29 |
| CCCCCCCCCC(=O)O [Capric acid] | – | – | 18.2 | 11 | 14.5 | 4.85 | – |
| CCCCCCCC(=O)O [Caprylic acid] | – | – | – | – | – | 4.42 | pEC50 (human GPR40 [5]; [12]): 4.25; pEC50 (human GPR40 [5]; [13]): 4.58 |
| CCCCC/C=C\C/C=C\C/C=C\CCCCCCC(=O)O [Dihomo-gamma-linolenic acid] | 7.2 | 5.14 | – | – | – | – | – |
| CC/C=C\C/C=C\C/C=C\C/C=C\C/C=C\CCCCCC(=O)O [Docosa-7Z,10Z,13Z,16Z,19Z-pentaenoic acid] | 4.7 | 5.33 | – | – | – | – | – |
| CC/C=C\C/C=C\C/C=C\CCCCCCCCCCCC(=O)O [Docosa-13Z,16Z,19Z-trienoic acid] | 6.8 | 5.17 | – | – | – | – | – |
| CC/C=C\C/C=C\C/C=C\C/C=C\C/C=C\CCCC(=O)O [Eicosa-5Z,8Z,11Z,14Z,17Z-pentaenoic acid] | 6.8 | 5.17 | – | – | – | – | – |
| CCCCCCCCCCC/C=C\C/C=C\CCCC(=O)O [Eicosa-5Z,8Z-dienoic acid] | 7.8 | 5.11 | – | – | – | – | – |
| CC/C=C\C/C=C\C/C=C\CCCCCCCCCC(=O)O [Eicosa-11Z,14Z,17Z-trienoic acid] | 11.2 | 4.95 | – | – | – | – | – |
| CCCCC/C=C\C/C=C\CCCCCCCCCC(=O)O [Eicosa-11Z,14Z-dienoic acid] | 10.7 | 4.97 | – | – | – | – | – |
| CCCCCCCC/C=C/CCCCCCCC(=O)O [Elaidic acid] | – | – | – | – | – | – | FLIPR calcium response (PGRW): No response was detected; FLIPR calcium response (HLTEX11): No response was detected |
| CCCCCCCCCCCCCCCCCCCCC(=O)O [Heneicosanoic acid] | – | – | 35.5 | 29.5 | – | 4.49 | – |
| CCCCCCCCCCCCCCCCC(=O)O [Heptadecanoic acid] | – | – | 13.8 | 10.2 | 7.76 | 4.99 | – |

| Molecule | EC50 (human GPR40 [5]; [6]) [µM] | pEC50 (human GPR40 [5]; [7]) | EC50 (human GPR40 [5]; [8]) [µM] | EC50 (human GPR40 [5]; [9]) [µM] | EC50 (human GPR40 [5]; [10]) [µM] | pEC50 (human GPR40 [5]; [11]) | further results |
| --- | --- | --- | --- | --- | --- | --- | --- |
| CCCCCCC(=O)O [Heptanoic acid] | – | – | 46.8 | 60.3 | – | 4.28 | – |
| CCCCCCCC/C=C\CCCCCCCC(=O)OC[C@@H](O)COP(=O)(O)O [LPA, lysophosphatidic acid (oleoyl)] | – | – | – | – | – | – | agonist-stimulated reporter activity after pertussis toxin treatment [2]: completely abolished |
| CCCCCCCCCCCC(=O)O [Lauric acid] | – | – | 17.8 | 11.7 | 8.51 | 4.92 | – |
| CCCCC/C=C\C/C=C\CCCCCCCC(=O)O [Linoleic acid] | – | – | – | – | – | 4.73 | EC50 (human GPR40 [5]; [14]): 9.5 µM; EC50 (human GPR40 [5]; [15]): 9.54 µM; pEC50 (human GPR40 [5]; [12]): 4.78; pEC50 (human GPR40 [5]; [13]): 4.68 |
| CC/C=C\C/C=C\C/C=C\CCCCCCCC(=O)O [Linolenic acid] | – | – | – | – | – | 4.90 | EC50 (human GPR40 [5]; [14]): 5.5 µM; EC50 (human GPR40 [5]; [15]): 5.5 µM; pEC50 (human GPR40 [5]; [12]): 4.93; pEC50 (human GPR40 [5]; [13]): 4.66; pEC50 (human GPR40 [5]; Mean pEC50, FLIPR, third experiment): 5.12 |
| CCCCCCCCCCCCCCCCCCC(=O)O [Nonadecanoic acid] | – | – | 26.3 | 34.7 | – | 4.52 | – |
| CCCCCCCCC(=O)O [Nonanoic acid] | – | – | – | – | – | 4.40 | pEC50 (human GPR40 [5]; [12]): 4.16; pEC50 (human GPR40 [5]; [13]): 4.63 |
| CCCCCCCCCCCCCCCC(=O)O [Palmitic acid] | – | – | 8.32 | 3.09 | 5.01 | 5.30 | – |
| CCCCCC/C=C\CCCCCCCC(=O)O [Palmitoleic acid] | – | – | 15.1 | 15.5 | 11 | 4.86 | – |
| CCCCCCCCCCCCCCC(=O)O [Pentadeconoic acid] | – | – | 10.7 | 4.37 | 6.17 | 5.18 | – |
| CCCCCCCCCCCCCCCCCC(=O)O [Stearic acid] | – | – | 20 | 16.6 | 14.1 | 4.78 | – |
| CCCCCCCCCCC(=O)O [Undecanoic acid] | – | – | 25.1 | 21.9 | 14.8 | 4.70 | – |
| CCC=CCC=CCC=CCC=CCC=CC/C=C\CCC(=O)O [cis-4,7,10,13,16,19-Docosahexaenoic acid] | 1.6 | 5.79 | 6.61 | 2.95 | 3.98 | 5.37 | – |
| calcitonin | – | – | – | – | – | – | luciferase production (CRE-luciferase) [1]: increase in luciferase production; luciferase production (CRE-luciferase) (human GPR40 [3]): increase in luciferase production |
| pertussis toxin | – | – | – | – | – | – | decrease of basal reporter activity following pertussis toxin treatment (human GPR40 [4]; GPR40 clones, 1 ug/ml pertussis toxin): up to 70% |
| thrombin | – | – | – | – | – | – | agonist-stimulated reporter activity after pertussis toxin treatment [2]: only partially attenuated |
